Reference: PMC9503778, “Targeted Isolation of Antibiotic Brominated Alkaloids from the Marine Sponge Pseudoceratina durissima Using Virtual Screening and Molecular Networking” (Marine Drugs, 2022)
Values joined by “and” are separate entries in the source; they are usually repeats but may differ in a detail not shown here. Equal entries are not always repeated. Where two headings read alike, the source gives them in different places.

Tests used:
[1] = Cytotoxicity assay (CO-ADD); type: cell-based; settings: human embryonic kidney cells
[2] = test system: MRSA (G+) strain ATCC 43300; experiment: Antimicrobial growth inhibition (CO-ADD), MRSA; type: cell-based, Staphylococcus aureus; settings: for MIC / inhibition at 32 µg/mL: Staphylococcus aureus; for % inhibition MRSA: 32 µg/mL, duplicate (n = 2) values
Experimental: (§1) Compounds 1−3 and 5−12 were assayed against a selection of medically important pathogenic microorganisms (MRSA, E. coli, K. pneumoniae, A. baumanii, P. aeruginosa, C. albicans, C. neoformans), Table 4. […] To the best of our knowledge this compound had not been tested against any drug resistant strain of Gram-positive bacterium until this study.
(§2) The antimicrobial activity testing was performed by the Community for Antimicrobial Drug Discovery (CO-ADD). Compounds were assayed against a range of both Gram negative and Gram positive bacteria (see Supplementary Materials S3) including methicillin-resistant Staphylococcus aureus (MRSA) (G+), Escherichia coli (G-), Klebsiella pneumoniae (G-), Acinetobacter baumannii (G-), Pseudomonas aeruginosa (G-) together with two species of fungus (Candida albicans and Cryptococcus neoformans).
(§3) S3. Antimicrobial activity testing methodology
(§4) The compounds submitted to CO-ADD were evaluated in duplicate (n = 2) against seven microorganisms (five bacteria and two fungi) at a concentration of 32 µg/mL in a 384-well, non-binding surface plate (NBS) for each bacterial/fungal strain, keeping the final DMSO concentration to a maximum of 1% DMSO. All bacteria were cultured in cation-adjusted Mueller-Hinton broth (CAMHB) at 37 °C overnight. A sample of each culture was then diluted 40-fold in fresh broth and incubated at 37 °C for 1.5-3 h. The resultant mid-log phase cultures were diluted (CFU/mL measured by OD600), then added to each well of the compound containing plates, giving a cell density of 5x10^5 CFU/mL and a total volume of 50 µL. All the plates were covered and incubated at 37 °C for 18 h without shaking. […] Inhibition of bacterial growth was determined measuring absorbance at 600 nm (OD600) using a Tecan M1000 Pro mon-ochromator plate reader. […]
(§5) 2 h. The absorbance was measured using a Biotek Synergy HTX plate reader. The percentage of growth inhibition was calculated for each well, using negative control (medium only) and positive control (bacteria without inhibitors) on the same plate as the references. The significance of inhibition values was determined by modified Z-scores, calculated using the median and MAD of the samples (no controls) on the same plate. Samples with inhibition value above 80% and Z-score above 2.5 for either replicate (n = 2 on different plates) were classed as actives.
(§6) Colistin and vancomycin were used as positive bacterial inhibitor standards for Gram-negative and Gram-positive bac-teria, respectively. Fluconazole was used as a positive fungal inhibitor standard for C. albicans and C. neoformans. The antibiotics were provided in four concentrations, with two above and two below its MIC value, and plated into the first eight wells of column 23 of the 384-well NBS plates. The quality control (QC) of the assays was determined by the antimicrobial controls and the Z’-factor (using positive and negative controls). Each plate was deemed to fulfil the qual- […]
(§7) full growth inhibition at their highest concentration, and no growth inhibition at their lowest concentration. The seven […]
(§8) test microorganisms were Staphylococcus aureus MRSA (ATCC 43300), Escherichia coli (ATCC 25922), Klebsiella pneu-moniae (ATCC 700603), Acinetobacter baumanii (ATCC19606), Pseudomonas aeruginosa (ATCC 27853), Candida albicans (ATCC 90028) and Cryptococcus neoformans var. grubii (H99; ATCC 208821).
(§9) S4. Anthelmintic activity testing methodology
(§10) Dose-response evaluations were carried out to estimate the half-maximal inhibitory concentrations (IC50 values) for compounds against Haemonchus contortus (Haecon-5 strain) exsheathed third-stage larvae (xL3s). H. contortus were maintained in experimental sheep and procured in accordance with the institutional animal ethics guidelines and the regulations of Australia (permit no. 1714374; University of Melbourne). Immediately prior to use, third-stage larvae (L3s) were exsheathed and sterilised by incubation in 0.15% (v/v) bleach at 38 °C for 20 min, followed by washes in […]

[3] = test system: E. Coli (G-) strain ATCC 25922; experiment: Antimicrobial growth inhibition (CO-ADD), E. coli; type: cell-based, Escherichia coli; settings: for % inhibition E. coli: 32 µg/mL; for MIC / inhibition at 32 µg/mL: Escherichia coli
Experimental: as §1, §2, §3, §4, §5, §6, §7, §8, §9, §10

[4] = test system: A. baumannii (G-) strain ATCC 19606; experiment: Antimicrobial growth inhibition (CO-ADD), A. baumannii; type: cell-based, Acinetobacter baumannii; settings: for % inhibition A. baumannii: 32 µg/mL, duplicate (n = 2) values
Experimental: as §1, §2, §3, §4, §5, §6, §7, §8, §9, §10

[5] = test system: C. albicans (yeast) ATCC 90028; experiment: Antimicrobial growth inhibition (CO-ADD), C. albicans; type: cell-based, Candida albicans; settings: for % inhibition C. albicans: 32 µg/mL, duplicate (n = 2) values; for inhibition at 32 µg/mL / MIC: Candida albicans; for inhibition at 32 µg/mL: ATCC90028, read-out: % inhibition C. albicans, 32 µg/mL, duplicate (n = 2) values
Experimental: as §1, §2, §3
(§11) The compounds submitted to CO-ADD were evaluated in duplicate (n = 2) against seven microorganisms (five bacteria and two fungi) at a concentration of 32 µg/mL in a 384-well, non-binding surface plate (NBS) for each bacterial/fungal strain, keeping the final DMSO concentration to a maximum of 1% DMSO. All bacteria were cultured in cation-adjusted […]
(§12) Fungal strains were cultured for 3 days on Yeast Extract-Peptone Dextrose (YPD) agar at 30 °C. A yeast suspension of 1 x 10^6 to 5 x 10^6 CFU/mL (as determined by OD530) was prepared from five colonies. The suspension was subsequently diluted and added to each well of the compound-containing plates giving a final cell density of fungi suspension of 2.5 x 10^3 CFU/mL and a total volume of 50 µL. All plates were covered and incubated at 35 °C for 24 h without shaking. […]
as §5, §6, §7, §8, §9
Dose-response evaluations were carried out to estimate the half-maximal inhibitory concentrations (IC50 values) for compounds against Haemonchus contortus (Haecon-5 strain) exsheathed third-stage larvae (xL3s). H. contortus were maintained in experimental sheep and procured in accordance with the institutional animal ethics guidelines and the regulations of Australia (permit no. 1714374; University of Melbourne). Immediately prior to use, third-stage larvae (L3s) were exsheathed and sterilised by incubation in 0.15% (v/v) bleach at 38 °C for 20 min, followed by washes in sterile saline at room temperature (22-24 °C). […]

[6] = test system: C. neoformans var. grubii strain ATCC 208821; experiment: Antimicrobial growth inhibition (CO-ADD), C. neoformans; type: cell-based, Cryptococcus neoformans; settings: for % inhibition C. neoformans: 32 µg/mL, duplicate (n = 2) values
Experimental: as §1, §2, §3, §11, §12
as §5, with “Growth inhibition of C. albicans was determined measuring absorbance at 530 nm (OD530), while the growth inhibition of C. neoformans was determined measuring the difference in absorbance between 600 and 570 nm (OD600-570), after the addition of resazurin (0.001% final concentration) and incubation at 35 °C for an additional 2 h.” for “2 h.”
as §6, §7, §8, §9
Dose-response evaluations were carried out to estimate the half-maximal inhibitory concentrations (IC50 values) for compounds against Haemonchus contortus (Haecon-5 strain) exsheathed third-stage larvae (xL3s). H. contortus were maintained in experimental sheep and procured in accordance with the institutional animal ethics guidelines and the […]

[7] = ATCC 43300, MIC = concentration at which growth inhibited by ≥80%, range 0.25−32 µg/mL, read-out: MIC MRSA
[8] = ATCC25922, ATCC 25922, MIC = concentration at which growth inhibited by ≥80%, read-out: MIC E. coli
[9] = Acinetobacter baumannii, ATCC19606, ATCC 19606, read-out: MIC A. baumannii
[10] = ATCC90028, ATCC 90028, read-out: MIC C. albicans

SMILES: COC1=C(Br)[C@H](O)[C@@]2(C=C1Br)CC(C(=O)NCCCCCNC(=O)C1=NO[C@]3(C=C(Br)C(OC)=C(Br)[C@@H]3O)C1)=NO2 [Compound 3, homoaerothionin]
- CC50 [1]: > 32 µg/mL
- MIC [2, 7]: > 32 µg/mL
- % inhibition E. coli ([3]; duplicate (n = 2) values): −2.9% and −3.1%
- MIC [3, 8]: > 32 µg/mL
- % inhibition A. baumannii [4]: 9.8%
- inhibition at 32 µg/mL ([4]; Acinetobacter baumannii, ATCC19606, read-out: % inhibition A. baumannii, 32 µg/mL, duplicate (n = 2) values): 13.8%
- MIC [4, 9]: > 32 µg/mL
- % inhibition C. albicans [5]: 6.3%
- inhibition at 32 µg/mL [5]: 3.4%
- MIC [5, 10]: > 32 µg/mL
- % inhibition C. neoformans [6]: 16.1%
- inhibition at 32 µg/mL ([6]; Cryptococcus neoformans, ATCC208821, read-out: % inhibition C. neoformans, 32 µg/mL, duplicate (n = 2) values): 10.6%

SMILES: COC1=C(Br)[C@H](O)[C@](O)(CC#N)C=C1Br [Compound 1, (+)-aeroplysinin-1]
- CC50 [1]: > 32 µg/mL
- % inhibition MRSA [2]: 96.7%
- MIC MRSA ([2]; ATCC 43300, MIC = concentration at which growth inhibited by ≥80%, range 0.25−32 µg/mL): 32 µg/mL
- inhibition at 32 µg/mL ([2]; read-out: % inhibition MRSA, 32 µg/mL, duplicate (n = 2) values): 95.9%
- MIC ([2]; read-out: MIC MRSA, ATCC 43300, MIC = concentration at which growth inhibited by ≥80%, range 0.25−32 µg/mL): < 32 µg/mL
- inhibition at 32 µg/mL ([2]; read-out: mean value of % inhibition against MRSA, 32 µg/mL, mean of duplicates): 96.3%
- % inhibition E. coli ([3]; duplicate (n = 2) values): 95.2%
- inhibition at 32 µg/mL ([3]; ATCC25922, read-out: % inhibition E. coli, 32 µg/mL, duplicate (n = 2) values): 93.7%
- MIC ([3]; ATCC25922, read-out: MIC E. coli): 32 µg/mL
- inhibition at 32 µg/mL ([3]; ATCC25922, read-out: mean value of % inhibition against E. coli, 32 µg/mL, mean of duplicates): 94.5%
- MIC ([4]; Acinetobacter baumannii, ATCC19606, read-out: MIC A. baumannii): > 32 µg/mL
- % inhibition C. albicans [5]: 9.8%
- inhibition at 32 µg/mL [5]: 9.5%
- MIC ([5]; ATCC90028, read-out: MIC C. albicans): > 32 µg/mL
- % inhibition C. neoformans [6]: −6.6% and 0.0%

SMILES: COC1(OC)C(Br)=CC(O)(CC(N)=O)C=C1Br [Compound 6, 2-(3,5-dibromo-1-hydroxy-4,4-dimethoxycyclohexa-2,5-dien-1-yl)acetamide]
- CC50 ([1]; human): > 32 µg/mL
- % inhibition MRSA [2]: 3.3% and 7.0%
- MIC [2, 7]: > 32 µg/mL
- % inhibition E. coli ([3]; duplicate (n = 2) values): 15.6%
- inhibition at 32 µg/mL ([3]; ATCC25922, 32 µg/mL, duplicate (n = 2) values, read-out: % inhibition E. coli): 14.6%
- MIC [3, 8]: > 32 µg/mL
- % inhibition A. baumannii [4]: 2.3% and 9.7%
- MIC [4, 9]: > 32 µg/mL
- % inhibition C. albicans [5]: 0.6% and 4.6%
- MIC [5, 10]: > 32 µg/mL
- % inhibition C. neoformans [6]: 11.1% and 2.0%

SMILES: COC1=C(Br)[C@H](O)[C@@]2(C=C1Br)CC(C(=O)NCCCCNC(=O)C1=NO[C@]3(C=C(Br)C(OC)=C(Br)[C@@H]3O)C1)=NO2 [Compound 2, aerothionin]
- CC50 ([1]; human): > 32 µg/mL
- % inhibition MRSA [2]: −1.5% and 6.1%
- MIC [2, 7]: > 32 µg/mL
- % inhibition E. coli ([3]; duplicate (n = 2) values): 0.9% and 2.3%
- MIC [3, 8]: > 32 µg/mL
- MIC [4, 9]: > 32 µg/mL
- % inhibition C. albicans [5]: 0.5% and 4.2%
- MIC [5, 10]: > 32 µg/mL
